Results from patent US4347319A, “Microbiological epoxidation process” (priority 1980, dated 1982).

Assays:
[1] = target: T1, cell fractions of Methylosinus sp. (CRL-15, NRRL B-11,202) (Methylosinus trichosporium, UniProt Q50541+Q9KX50+Q9KX51); experiment: Oxidation by cell fractions P(40), P(80), S(80); type: biochemical; settings: P(40) particulate fraction; alkene to epoxide, alkane to alcohol; 30° C.
T1 sequence (Q9KX50 40-431): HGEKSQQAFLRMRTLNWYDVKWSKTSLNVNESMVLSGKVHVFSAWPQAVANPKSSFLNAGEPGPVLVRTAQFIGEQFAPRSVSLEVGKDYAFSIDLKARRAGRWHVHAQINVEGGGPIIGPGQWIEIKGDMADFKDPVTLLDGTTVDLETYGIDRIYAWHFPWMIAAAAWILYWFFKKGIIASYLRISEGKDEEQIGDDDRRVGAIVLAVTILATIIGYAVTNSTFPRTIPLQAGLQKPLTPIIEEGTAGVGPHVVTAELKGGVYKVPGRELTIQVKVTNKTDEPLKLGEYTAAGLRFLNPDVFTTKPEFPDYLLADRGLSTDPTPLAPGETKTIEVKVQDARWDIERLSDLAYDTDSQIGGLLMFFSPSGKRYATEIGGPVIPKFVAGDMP
T1 sequence (Q50541 1-252): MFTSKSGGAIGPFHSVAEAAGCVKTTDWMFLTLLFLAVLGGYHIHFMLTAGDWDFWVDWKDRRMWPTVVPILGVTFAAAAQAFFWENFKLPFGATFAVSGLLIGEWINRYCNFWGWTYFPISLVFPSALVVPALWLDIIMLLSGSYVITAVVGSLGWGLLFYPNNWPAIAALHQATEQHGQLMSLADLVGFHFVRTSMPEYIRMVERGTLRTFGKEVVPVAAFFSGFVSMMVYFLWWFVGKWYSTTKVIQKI
T1 sequence (Q9KX51 1-256): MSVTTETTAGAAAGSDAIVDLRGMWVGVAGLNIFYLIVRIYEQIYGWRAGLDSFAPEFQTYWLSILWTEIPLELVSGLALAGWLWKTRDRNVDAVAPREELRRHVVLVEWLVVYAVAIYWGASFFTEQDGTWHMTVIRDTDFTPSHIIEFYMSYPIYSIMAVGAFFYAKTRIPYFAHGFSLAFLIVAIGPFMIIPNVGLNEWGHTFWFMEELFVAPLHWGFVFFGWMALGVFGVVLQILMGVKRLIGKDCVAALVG
Experimental: Cells were washed twice with 25 mM potassium phosphate buffer, pH 7.0 containing 5 mM MgCl2. Cells were suspended in the same buffer. The cell suspensions at 4° C. were disintegrated by a single passage through a French Pressure cell (15,000 lb./in.^2) and centrifuged at 5000×g. for 15 min. to remove unbroken bacteria. The supernatant solution (crude extract) was then centrifuged at 40,000×g. for 30 min., yielding particulate P(40) and soluble S(40) fractions. The S(40) fraction was subsequently centrifuged at 80,000×g. for 60 min., yielding particulate P(80) and soluble S(80) fractions. The particulate fractions [P(40) and P(80)] were suspended in 25 mM potassium phosphate buffer, pH 7.0, containing 5 mM MgCl2 and homogenized at 4° C.
The oxidation of methane and propylene by particulate [(P)40 and (P)80] fractions and soluble [S(80)] fraction was measured at 30° C. by estimating the production of methanol and propylene oxide, respectively. The reaction mixtures contained in […]: 150 mM potassium phosphate buffer, pH 7.0 containing 5 mM MgCl2 b, 0.6 ml; 10μ moles NADH, and cellular fraction.
Reaction mixtures were contained in 10 ml vials at 4° C. Vials were sealed with rubber caps. The gaseous phase in the vials was removed using vacuum and then was replaced with a gas mixture of methane or propylene and oxygen at a 1:1, v/v ratio. Oxidation of other gaseous n-alkanes and n-alkanes was examined as described above. For liquid substrates, 10 μl of substrate was used directly.
The products of epoxidation of n-alkenes and hydroxylation of n-alkanes were assayed by flame ionization gas chromatography using a stainless steel column (12'×1/8") packed with 10% Carbowax 20 M on 80/100 Chromosorb W and Porapak Q column. The column temperature was maintained isothermally at 120° C. The carrier gas flow rate was 30 ml/min. of helium. The various products were identified by retention time comparisons and co-chromatography with authentic standards.
Specific activities were expressed as μ moles of products formed per hour per mg. protein. Concentrations of protein in various fractions were determined by the method of Lowry et al., J. Biol. Chem., 193: 265-275 (1951).

[2] = tested on: methane-grown methylotrophic microorganisms; experiment: Epoxidation by methane-grown cells of the strains of the invention; type: cell-based
Experimental: The pH of the nutrient medium was adjusted to 7.0 by the addition of acid or base and 50 ml samples of the nutrient medium were charged into a plurality of 300 ml shaker flasks. The shaker flasks were inoculated with an inoculating loop of cells from an agar plate containing homogeneous colonies of the microorganisms on the plate (the purity of the isolates was confirmed by microscopic examination. The isolates had been maintained on agar plates under an atmosphere of methane and air having a 1:1 v/v gas ratio which had been transferred evey two weeks. The gaseous phase of the inoculated flasks was then replaced with a gas mixture comprised of methane and air having a ratio of 1:1 on a v/v basis. The inoculated flasks were sealed air tight and were incubated on a rotary shaker of orbital radius 2.5 cm at 250 rpm and at 30° C. for two days until turbidity in the medium had developed.
The cells were harvested by centrifugation at 10,000×g. at 4° C. for 30 minutes. The cell pellet was washed twice with a 0.15 M phosphate buffer at a pH of 7.0 (containing 0.002 M MgCl2). […]
A 0.5 ml sample of each washed cell suspension (2 mg cells) was put into 10 ml vials at 4° C. which were sealed with a rubber cap. […] Samples of product (3 μl) were withdrawn periodically with a microsyringe and the products were analyzed by gas chromatography (ionization flame detector column). […]

C=CCCC [1-Pentene]
Rate of Product Formation [1]: 0 μ moles/hr/mg of protein
epoxide product formation [2]: did not produce any detectable epoxide product
